The results in this text go back to US20110098492A1, “CLEANING COMPOSITIONS CONTAINING MID-RANGE ALKOXYLATES” (priority 2008, published 2011).

One data set relates to Daphna magna. The experiment in a line: 48-hour acute toxicity to Daphnia. It is filed as in vivo. The source says: The study procedures and test methods were based on the recommendations of the following guidelines: […]
The test system of a further data set is Desmondesmus subspicatus. The experiment in a line: Fresh water algal growth inhibition test (OECD 201). It is filed as cell-based. Conditions: growth rate. The source says:
Organization for Economic Cooperation and Development (OECD): OECD Guidelines for the Testing of Chemicals, “Freshwater Alga and Cyanobacteria, Growth Inhibition Test”, Procedure 201, adopted 23 Mar. 2006; European Economic Community (EEC): […] OECD Guidelines for the Testing of Chemicals, “Freshwater Alga and Cyanobacteria, Growth Inhibition Test”, Procedure 201, adopted 23 Mar. 2006; European Economic Community (EEC): […]

The nature of data set [1]: Gel range in water at 23 C. It counts as physicochemical. Further details: key: L = Liquid; G = Gel; TL = Thick Liquid. The method, then:
One way the industry expresses a tendency of a surfactant to cause gels is a “gel range.” A typical gel range describes a percentage of samples that form gels, out of a number of samples, each having increasing surfactant concentration. […] A sample forms a gel when it is non-pourable for at least five seconds at 23° centigrade (° C.) when its container is inverted 180° so the container's open spout or mouth faces down. For many applications, a surfactant ideally has no gel range.
D) Gel range: Ten surfactant solutions are made using 0%, 10%, 20%, 30%, 40%, 50%, 60%, 70%, 80%, 90% water. […] The test is run at 23 C.

Data set [2] in a line: Formula stability with LAS, sodium citrate and water. It is filed as physicochemical. On the set-up: key to Formula stability: S = Stable; U = Unstable. The text has this:
When mixed with dodecyl benzene sulfonic acid (sodium salt), and sodium citrate in water, the surfactants of the present invention show enhanced formula stability relative to conventional surfactants.

Data set [3] in a line: Ross-Miles foam height test (ASTM D1173). It is filed as physicochemical. Conditions: for Ross Miles Foam Height, millimeters, Initial: Initial (0 sec). The method, then: A) Ross-Miles Foam Height Test: This test is carried out according to the protocol of ASTM […].
Data set [4] is described as follows: Surface tension and critical micelle concentration (Wilhelmy plate). It counts as physicochemical. Conditions: for Surface Tension: 0.1 wt % in water; for Critical Micelle Concentration: in de-ionized water. The method, then:
B) Surface Tension and Critical Micelle Concentration (CMC) Measurement. For this test the surface tension of a surfactant-water solution is measured while incrementally adding the surfactant to de-ionized water. Results are measured in terms of dyne/centimeters using a Wilhelmy plate. Results are recorded versus surfactant concentration. The Critical Micelle Concentration is the point at which an increase in surfactant concentration no longer results in a change in surface tension.

The nature of data set [5]: Pour point test (ASTM D97). It is filed as physicochemical. On the procedure: C) Pour Point Test: This test is carried out according to the protocol of ASTM Test D97.
Another data set deals with Sicklepod. The experiment in a line: Greenhouse herbicide adjuvant efficacy with glyphosate. It counts as in vivo. Conditions: adjuvant 0.25% v/v in spray, visual injury at 18 DAA. On the procedure: Efficacy of Examples 7 and 8 as adjuvants in formulated herbicides is compared to commercially available herbicide packages. Greenhouse field testing is completed. A 480 g ae/L (acid equivalent per liter) formulation of glyphosate isopropylamine with no adjuvants is added to spray vials. These aliquots are diluted to a final volume of 60 ml with tap water, and appropriate amounts of adjuvants are added to the spray solution. The Examples 7 and 8 series are tested at 0.25% v/v in the final spray solution. Treatment rates are: 200, 400, and 600 g ae/ha (“ha” means hectare) and each treatment is replicated three times. Treatments are applied with a tracksprayer. The sprayer utilizes an 8002E spray nozzle, spray pressure of 262 kPa pressure and speed of 2.2 mph to deliver 140 L/Ha. The nozzle height is 46 cm above the pots. Percent visual injury assessments are made at 18 DAA (days after application) on a scale of 0 to 100% as compared to the untreated control plants (where 0 is equal to no injury and 100 is equal to complete death of the plant). Results are shown in Table 10 as % Control of Sicklepod with Glyphosate compared to commercial herbicides.

Data set [6] can be described thus: Cleaning of cross-linked triglycerides (Gardner scrubber, soiled vinyl tile). Further details: key to Arbitrary Gray Value: mean gray value of tile image (ImageJ). Conditions: for Arbitrary Gray Value: 120 back-and-forth strokes, higher = better cleaning; for cleaning of cross-linked triglycerides (in words): aqueous solution, compared with NP-9 / APEs. The method, then:
Test panels coated with mixtures of triglycerides and cross-linked triglycerides were prepared and evaluated using the following procedure. Cobalt Naphthenate was used as a catalyst to accelerate the oxidation of vegetable oil to give a hard varnish. Carbon black is added to the varnish to enable easy visual comparison of the ability to clean the cross-linked triglyceride from the surface.
Substrate Panels: White Vinyl Floor Tile: Tarket Corporation Azrock™ VS304-3 (6913) cut to 4¼×4¼ inch (to fit the Gardner Linear Motion Scrubber).
Soil Formulation: 100 grams Canola Oil (Food Grade, 100%, Kroger Co. Cincinnati, Ohio 45202); 2 grams Acetylene Carbon Black (Cat #39724, Alfa Aesar; Surface area=74 sq m/g); 20 grams drying agent: Cobalt Naphthenate Solution (Aldrich Cat #54,457-4, CAS #61789-51-3) (Comes as a 6% solution in petroleum solvent); Oven: Convection oven set at 160° F.
Scrubbing Tester: Gardco washability & Wear Tester; Linear Motion Test Equipment; Model D12-V Cat #WA-2164 (Paul N. Gardner Company, Inc. 316 N.E. First Street, Pompano, Beach, Fla. 33060.
Sponges: “Do-It” Cellulose Sponge, 1⅝ in thick, cut to 3″×4″. Manufactured by Bloch/New England for HWI, Fort Wayne, Ind. 46801;
Paint Brushes: Economy Chip Brush 1 Inch. www.lgsourcing.com Model #0106; Item #103407 obtained from Lowes, Inc. L. G. Sourcing, Inc. P.O. Box 1535 North Wilkseboro, N.C. 28659
Reflectance Meter: HunterLab ColorQuest XE
Prepare a stock solution by mixing 98 grams of canola oil (food grade) with 2.0 g acetylene-based carbon black (Cat #39724, Alfa Aesar; Surface area=74 sq m/g). Mix with a disperser at 2000 rpm for 15 min. (We used a Caframo Model BDC 3030 with a 0.50 dispersing blade).
Add 20.0 grams Cobalt Naphthenate Solution and mix well (by hand, using a glass stir rod).
Place 1.6 grams soil per 4×4 inch tile.
Paint to a thin film using a clean 1-inch economy brush. Use several strokes to get to an even coating. Use a clean, dry brush for each application. (After the application, each brush can be cleaned with acetone, dried, and then re-used).
Place in a convection oven set at 160 F for 16 hours. We place the panels in an oven at 4:00 p.m, and then remove the panels at 8:00 a.m. the next morning. Let the panels cool for 1 hour.
Use the panels within 10 days
Place a panel in the Gardner Scrubber
[…] (We use 5.0 grams surfactant diluted to 500 mL water).
Prepare a sponge by rinsing several times in cold tap water. Completely squeeze out the sponge by hand.
After each test, rinse out the sponge 15-20 times (by repeated sorption and squeezing) until there is no noticeable surfactant solution left (usually indicated by a lack of foam).
Pour 500 mL of surfactant solution into a beaker
Place the sponge into the beaker—allowing it to soak up as much surfactant as possible.
Place the sponge into the Gardner Scrubber.
Pour the remaining liquid (approx 400 mL) over the test panel in the scrubber. There should be enough liquid to just cover the test panel.
Program the scrubber to perform 120 back-and-forth strokes (for a total of 240 linear strokes). We define each back-and-forth stroke as “1 stroke”
Remove the panel rinse with tap water
Clean the Gardner scrubber by rinsing with tap water.
Clean the sponge by squeezing it out under tap water 20-30 times until clean.
Remove excess water from the sponge by squeezing as much liquid out as possible.
After the panel is dry, either take pictures (for visual comparison of cleaning) or measure the reflectance using the Xyy mode of a Hunter Colorimeter. Alternatively, the mean gray value can be obtained by taking a picture of the tiles and processing computer image with ImageJ™ software, which is distributed freely by the National Institute of Health (nih.gov).

The next data set can be described thus: Cloud point. It counts as physicochemical.

Consider 2EH(PO)5(EO)3 [Example 6], for which the “48-hour Acute Toxicity to Daphna magna (EC50-50 hour)” value in the data set with Daphna magna stood at 33.6 µg/mL. Moreover, the “Fresh Water algal growth inhibition test with Desmondesmus subspicatus ErC50/0-3” value with Desmondesmus subspicatus turned out to be 31.9 mg/L.

2EH(PO)11(EO)11 [Example 5]: the “Gel Range, Percent Surfactant in Water at 23 C.” value (from here on “Gel Range, Percent Surfactant”) in data set [1] (10% surfactant in water) is given as “L”; in data set [1] (20% surfactant in water) it was “L”; in data set [1] (30% surfactant in water), “L”; in data set [1] (40% surfactant in water), “G”; in data set [1] (50% surfactant in water), “G”; in data set [1] (60% surfactant in water), “G”. The “Gel Range, Percent Surfactant” value in data set [1] (70% surfactant in water) is listed as “G”; in data set [1] (80% surfactant in water), “G”; in data set [1] (90% surfactant in water), “L”. The Formula stability entry is “S” in [2] (15% LAS/0% Na Cit in water), “S” in data set [2] (15% LAS/1% Na Cit in water), “S” in data set [2] (15% LAS/2% Na Cit in water) and “U” in data set [2] (15% LAS/4% Na Cit in water). The “formula stability (in words)” value in data set [2] (cleaning formulations, without hydrotrope) is listed as “stable”. Further, the “Ross Miles Foam Height, millimeters, 5 Minutes” value in data set [3] was determined as 15 millimeters. The “Ross Miles Foam Height, millimeters, Initial” value in data set [3] came to 75 millimeters. Further, the “Surface Tension” value in data set [4] is 30 dyne/centimeters. The substance further returned a Critical Micelle Concentration in data set [4] of 300 ppm. Also, in data set [5], the “Pour Point” value worked out at 36 ° F.

As for 2EH(PO)2(EO)4 [Example 1], in data set [3], the “Ross Miles Foam Height, millimeters, 5 Minutes” value amounted to 5 millimeters and the “Ross Miles Foam Height, millimeters, Initial” value was 110 millimeters. Besides, in data set [4], the “Surface Tension” value is given as 35 dyne/centimeters and the Critical Micelle Concentration came out at 3300 ppm.

For 2EH(PO)3(EO)6.8 [Example 2], the “Gel Range, Percent Surfactant” value in data set [1] (10% surfactant in water), in [1] (20% surfactant in water), in [1] (30% surfactant in water), in data set [1] (40% surfactant in water), in data set [1] (50% surfactant in water) and in data set [1] (60% surfactant in water) was “L” in each case. Besides, the “Gel Range, Percent Surfactant” value in [1] (70% surfactant in water), in data set [1] (80% surfactant in water) and in data set [1] (90% surfactant in water) was “L” in each case. In addition, in data set [3], the “Ross Miles Foam Height, millimeters, 5 Minutes” value is given as 5 millimeters. Moreover, the “Ross Miles Foam Height, millimeters, Initial” value in [3] is on record as 115 millimeters. For the same substance, in data set [4], the “Surface Tension” value is 32 dyne/centimeters. In addition, the Critical Micelle Concentration in data set [4] turned out to be 2400 ppm. The “Pour Point” value in data set [5] was found to be 50 ° F.

Regarding 2EH(PO)9(EO)9 [Example 4], the “Gel Range, Percent Surfactant” value in data set [1] (10% surfactant in water) is “L”; in [1] (20% surfactant in water), “L”; in data set [1] (30% surfactant in water) it was “L”; in data set [1] (40% surfactant in water), “TL”; in data set [1] (50% surfactant in water) it was “G”; in data set [1] (60% surfactant in water), “G”. Besides, the “Gel Range, Percent Surfactant” value in [1] (70% surfactant in water) was “G”; in data set [1] (80% surfactant in water), “G”; in data set [1] (90% surfactant in water) it was “L”. The “Ross Miles Foam Height, millimeters, 5 Minutes” value in data set [3] is given as 5 millimeters. For the same substance, the “Ross Miles Foam Height, millimeters, Initial” value in data set [3] worked out at 50 millimeters. Moreover, in [4], the “Surface Tension” value was found to be 30 dyne/centimeters. For the same substance, in data set [4], the Critical Micelle Concentration was found to be 400 ppm. Further, the “Pour Point” value in data set [5] was 37 ° F.

For the substance 2EH(PO)5(EO)6 [Example 7], the “% Control of Sicklepod with Glyphosate” value amounted to 66.7% with Sicklepod (200 G/ha glyphosate), 81.7% with Sicklepod (400 G/ha glyphosate) and 98.3% in the data set on Sicklepod (600 G/ha glyphosate). For the same substance, the “Arbitrary Gray Value” is reported as 106 in [6] (0.5% by weight in water) and 179 in data set [6] (1% by weight in water). The “cleaning of cross-linked triglycerides (in words)” value in data set [6] is “performs as well as NP-9”; in [6] (listed as 2EH(PO)5(EO)6) it was “performs as well and NP-9”.

As for C9(PO)4(EO)5.5, the cloud point in “Cloud point” stood at 31.0 C.

As to C8-16(PO)2.5(EO)5 [reference compound], the “Arbitrary Gray Value” in data set [6] (0.5% by weight in water) turned out to be 48.

In the case of C9(BO)1(EO)6, in the data set “Cloud point”, the cloud point was found to be 38.5 C.

Turning to C9(BO)1(EO)5, the cloud point in “Cloud point” was 21.4 C.

For the substance C9(PO)4(EO)6.8, the cloud point in the data set “Cloud point” is reported as 43.0 C.

As for C9(PO)4(EO)8 [Example 10], in the data set on Daphna magna, the “48-hour Acute Toxicity to Daphna magna (EC50-50 hour)” value worked out at 29.2 µg/mL. In “Cloud point”, this substance came in with a cloud point of 55.3 C. Besides, the “Fresh Water algal growth inhibition test with Desmondesmus subspicatus ErC50/0-3” value in the data set on Desmondesmus subspicatus turned out to be 26 mg/L.

On to C12-14(EO)5 [reference compound], for which the “Arbitrary Gray Value” in data set [6] (1% by weight in water) is on record as 68.
